# Measurements: patent US9242982B2, “Pyridopyrimidine based derivatives as potential phosphodiesterase 3 (PDE3) inhibitors and a process for the preparation thereof” (COUNCIL OF SCIENTIFIC & INDUSTRIAL RESEARCH, priority 2013, dated 2016)
# pIC50: −log10 of the molar value.
# Biological target: PDE3 enzyme (Homo sapiens (Human), UniProt Q14432)
# Assay: PDE3 inhibition assay (BIOMOL GREEN Quantizyme Assay System)
# Assay type: biochemical
# Details: PDE3 from platelets isolated from human blood; cAMP substrate; 1 hour at 37° C.; read at 620 nm
# Description: PDE3 inhibition assay was performed a BIOMOL GREEN™ Quantizyme Assay System (catalogue No. BML-AK800-0001). The Platelets isolated from human blood were used as a source of PDE3 enzyme. 10 mL blood collected in a vacutainer tube (containing K3 EDTA) and centrifuged at 190×g for 15 min at room temperature. Top layer (platelet rich plasma) collected, centrifuged at 2500 g for 5 min at 22° C. (Room temp.) The pellet was washed with 2 ml of 50 mM tris buffer (pH-7.4) containing 1 mM MgCl2 and centrifuged at 2500 g for 5 min. Then 200 μl of assay buffer (from PDE kit, Enzo Life Sciences) was added to the pellet and sonicated at 30 s per ml. Pellet was freeze thawed for three times (−80° C.) in order to rupture the platelet membrane and release the PDE enzyme. Then the cell homogenate was centrifuged at 2500 rpm for 5 min. Supernatant was collected and used as source for PDE3 enzyme. In 96 well plate (Prod. No. BML-KI101), we added supernatant having PDE3 enzyme, PDE3 assay buffer, cAMP substrate, 5′ nucleotidase and test or standard compound and incubated for 1 hour at 37° C. The reaction was arrested by the addition 100 μl BIOMOL GREEN reagent incubated in room temp for 20 min. The green color developed was measured at 620 nm.
# The in vitro Phosphodiestarase (PDE3) inhibitory activity of compounds 1a-q, were measured using a BIOMOL GREEN™ Quantizyme Assay System (catalogue No. BML-AK800-0001). The basic principle for this assay is the cleavage of c-AMP or c-GMP into their respective nucleotide by a cyclic nucleotide phosphodiesterase. The nucleotide (AMP or GMP) released is further cleaved into the nucleoside and phosphate by the enzyme 5′-nucleotidase. The extent of phosphate released is directly proportional to the PDE activity. In this screening method, the released phosphate by the enzymatic cleavage is quantified using BIOMOL GREEN reagent in a modified malachite green assay. The resulting green colour with λmax at 620 nm is directly proportional to the released phosphate and then PDE activity.
# Chain of PDE3 enzyme (Q14432 whole entry): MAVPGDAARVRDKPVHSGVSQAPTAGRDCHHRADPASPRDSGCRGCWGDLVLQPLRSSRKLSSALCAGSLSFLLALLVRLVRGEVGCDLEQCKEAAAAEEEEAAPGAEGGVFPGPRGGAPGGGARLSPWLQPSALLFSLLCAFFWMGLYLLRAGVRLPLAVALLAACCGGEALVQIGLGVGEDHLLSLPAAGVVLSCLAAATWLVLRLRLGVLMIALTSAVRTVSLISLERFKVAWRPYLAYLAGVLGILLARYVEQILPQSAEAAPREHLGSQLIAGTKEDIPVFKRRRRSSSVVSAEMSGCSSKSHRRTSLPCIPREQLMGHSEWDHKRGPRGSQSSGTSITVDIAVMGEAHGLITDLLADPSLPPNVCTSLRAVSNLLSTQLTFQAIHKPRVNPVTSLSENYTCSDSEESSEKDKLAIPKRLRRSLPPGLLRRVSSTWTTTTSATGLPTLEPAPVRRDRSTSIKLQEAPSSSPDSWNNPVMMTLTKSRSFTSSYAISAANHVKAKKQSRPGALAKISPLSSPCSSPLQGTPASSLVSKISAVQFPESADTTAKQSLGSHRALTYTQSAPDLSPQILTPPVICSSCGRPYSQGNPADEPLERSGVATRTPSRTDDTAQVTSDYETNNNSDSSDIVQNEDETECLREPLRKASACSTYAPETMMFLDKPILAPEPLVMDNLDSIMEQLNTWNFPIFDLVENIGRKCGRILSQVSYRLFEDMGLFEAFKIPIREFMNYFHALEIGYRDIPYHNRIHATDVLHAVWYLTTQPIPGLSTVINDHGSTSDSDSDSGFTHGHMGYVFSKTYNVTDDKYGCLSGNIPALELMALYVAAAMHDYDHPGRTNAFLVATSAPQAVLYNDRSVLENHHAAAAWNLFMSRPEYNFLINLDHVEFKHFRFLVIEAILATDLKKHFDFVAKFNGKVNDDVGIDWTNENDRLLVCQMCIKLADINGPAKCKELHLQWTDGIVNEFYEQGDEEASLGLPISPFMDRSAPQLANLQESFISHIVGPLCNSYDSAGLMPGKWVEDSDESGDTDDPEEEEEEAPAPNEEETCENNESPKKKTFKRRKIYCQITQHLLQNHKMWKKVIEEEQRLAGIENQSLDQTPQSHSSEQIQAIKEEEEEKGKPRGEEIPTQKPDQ
row,SMILES,pIC50
1,"Cn1c(=O)c2cc(Cc3ccccc3)c(=O)[nH]c2n(C)c1=O [Compound 1a, 6-Benzyl-1,3-dimethyl-1,2,3,4,7,8-hexahydropyrido[2,3-d]pyrimidine-2,4,7-trione]",4.93
2,"Cn1c(=O)c2cc(Cc3ccccc3F)c(=O)[nH]c2n(C)c1=O [Compound 1b, 6-(2-Fluorobenzyl)-1,3-dimethyl-1,2,3,4,7,8-hexahydropyrido[2,3-d]pyrimidine-2,4,7-trione]",7.31
3,"Cn1c(=O)c2cc(Cc3cccc(F)c3)c(=O)[nH]c2n(C)c1=O [Compound 1c, 6-(3-Fluorobenzyl)-1,3-dimethyl-1,2,3,4,7,8-hexahydropyrido[2,3-d]pyrimidine-2,4,7-trione]",7.49
4,"Cn1c(=O)c2cc(Cc3ccc(Cl)cc3)c(=O)[nH]c2n(C)c1=O [Compound 1g, 6-(4-Chlorobenzyl)-1,3-dimethyl-1,2,3,4,7,8-hexahydropyrido[2,3-d]pyrimidine-2,4,7-trione]",7.90
5,"Cn1c(=O)c2cc(Cc3ccccc3Br)c(=O)[nH]c2n(C)c1=O [Compound 1i, 6-(2-Bromobenzyl)-1,3-dimethyl-1,2,3,4,7,8-hexahydropyrido[2,3-d]pyrimidine-2,4,7-trione]",8.18
6,"Cn1c(=O)c2cc(Cc3ccc(Br)cc3)c(=O)[nH]c2n(C)c1=O [Compound 1k, 6-(4-Bromobenzyl)-1,3-dimethyl-1,2,3,4,7,8-hexahydropyrido[2,3-d]pyrimidine-2,4,7-trione]",8.32
